Data from US7655800B2, “Crystalline 1H-imidazo[4,5-b]pyridin-5-amine, 7-[5-[(cyclohexylmethylamino)-methyl]-1H-indol-2-yl]-2-methyl, sulfate (1:1), trihydrate and its pharmaceutical uses” (Eisai R & D Management Co., Ltd., priority 2005, dated 2010).
Counter-ions that a name gives are not always drawn.

Experiments:
Type in all cases: physicochemical
[1] = Solubility in water of amorphous versus crystalline E6070; conditions: in words
[2] = Hygroscopicity measurements (controlled-atmosphere microbalance, adsorption/desorption isotherm); conditions: for hygroscopicity: general statement, in words
Description: Hygroscopicity Measurements: Samples were exposed to various relative humidity (RH) conditions at 25° C. using an automated controlled-atmosphere microbalance, MB-300W (VTI Corporation, FL, USA). In this system, a sample was suspended in an isothermal chamber at 25° C., and the RH was regulated from 5% to 95% by adjusting the relative flow rates of dry (0% RH) and moist (100% RH) nitrogen. The weight of the sample was measured every 2 min with the microbalance. The weight stability criterion employed for the equilibrium was that the maximum weight change for each measurement was less than 0.2% (w/w).

[3] = Physical stability of crystalline E6070 under stressed storage (XRD, TG-DTA)
Description: Crystalline E6070 was placed on the sample platform of an X-ray powder diffractometer (RINT-2000, Rigaku, Japan) and analyzed under the conditions shown in Table 3.
Thermal Analyses: Using a Rigaku Thermoflex TAS20 TG8101D (Rigaku, Tokyo, Japan) therogravimetric-differential thermal analyses (TG-DTA) were performed under the measurement conditions in Table 9. The temperature axis and the cell constant were calibrated with indium. The solid sample (1-5 mg) was accurately weighed into an open aluminum pan and then heated.
The physical stability of crystalline E6070 was evaluated under the following two conditions: 60° C. for a month and 40° C./75% RH (open) for a month.

[4] = 40° C./75% RH (open) for a month

- solubility in water [1]: much less soluble in water
- hygroscopicity ([2]; listed as Crystalline E6070, trihydrate): very low hygroscopicity
- hygroscopicity ([2]; trihydrate): non-hygroscopic
- TG-DTA thermogram after storage compared with initial [3, 4]: same TG-DTA thermogram as the initial
- change in XRD pattern after storage [3, 4]: no change
- TG-DTA thermogram after storage compared with initial ([3]; 60° C. for a month): same TG-DTA thermogram as the initial
- change in XRD pattern after storage ([3]; 60° C. for a month): no change
- physical stability in the solid state (conclusion) ([3]; both stressed conditions, one month): physically stable in the solid state
Structure (SMILES): Cc1nc2nc(N)cc(-c3cc4cc(CN(C)C5CCCCC5)ccc4[nH]3)c2[nH]1 [crystalline E6070, 1H-imidazo[4,5-b]pyridin-5-amine, 7-[5-[(cyclohexylmethylamino)-methyl]-1H-indol-2-yl]-2-methyl, sulfate (1:1), trihydrate]
- moisture uptake or loss on exposure to controlled humidities ([2]; from 0% to 93% RH at 25° C.): not found to take up or lose any moisture
